The assay concerns Endogenous Huntingtin Protein. Kind of assay: Endogenous Huntingtin Protein Assay (Meso Scale Discovery ELISA-based electrochemiluminescence). Format: cell-based. Conditions: MSD plates coated with MW1 (expanded polyglutamine) or MAB2166 capture antibody; lysates. The method, then:
Compounds of Formula (I) were tested using the Meso Scale Discovery (MSD) Assay provided in International Application No. PCT/US2016/066042, filed on Dec. 11, 2016 and claiming priority to United States Provisional Application U.S. 62/265,652 filed on Dec. 10, 2015, the entire contents of which are incorporated herein by reference.
The Endogenous Huntingtin Protein assay used in Example 1 was developed using the ELISA-based MSD electrochemiluminescence assay platform.
Endogenous Huntingtin Protein Assay
Meso Scale Discovery (MSD) 96-well or 384-well plates were coated overnight at 4° C. with MW1 (expanded polyglutamine) or MAB2166 monoclonal antibody (for capture) at a concentration of 1 μg/mL in PBS (30 μL per well). Plates were then washed three times with 300 μL wash buffer (0.05% Tween-20 in PBS) and blocked (100 μL blocking buffer; 5% BSA in PBS) for 4-5 hours at room temperature with rotational shaking and then washed three times with wash buffer.
Samples (25 μL) were transferred to the antibody-coated MSD plate and incubated overnight at 4° C. After removal of the lysates, the plate was washed three times with wash buffer, and 25 μL of #5656S (Cell signaling; rabbit monoclonal) secondary antibody (diluted to 0.25 μg/mL in 0.05% Tween-20 in blocking buffer) was added to each well and incubated with shaking for 1 Hour at room temperature. Following incubation with the secondary antibody, the wells were rinsed with wash buffer after which 25 μL of goat anti-rabbit SULFO TAG secondary detection antibody (required aspect of the MSD system) (diluted to 0.25 μg/mL in 0.05% Tween-20 in blocking buffer) was added to each well and incubated with shaking for 1 hour at room temperature. After rinsing three times with wash buffer, 150 μL of read buffer T with surfactant (MSD) were added to each empty well, and the plate was imaged on a SI 6000 imager (MSD) according to manufacturers' instructions provided for 96- or 384-well plates.
(In general: ELISA stands for enzyme-linked immunosorbent assay.)
The compound `CN1C(C)(C)CC(n2nnc3cc(-c4ccc(-c5cn[nH]c5)cc4O)nnc32)CC1(C)C` [Cpd 52, 2-[3-(1,2,2,6,6-pentamethylpiperidin-4-yl)-3H-[1,2,3]triazolo[4,5-c]pyridazin-6-yl]-5-(1H-pyrazol-4-yl)phenol] displayed an IC50 of 0.5 to 1 µM.
The result for `CCOc1cc(-c2ccc(-c3cc4nnn(C5CC(C)(C)NC(C)(C)C5)c4nn3)c(O)c2)ccn1` [Cpd 123, 5-(2-ethoxypyridin-4-yl)-2-[3-(2,2,6,6-tetramethylpiperidin-4-yl)-3H-[1,2,3]triazolo[4,5-c]pyridazin-6-yl]phenol] reads 3 to 9 µM; that for `Cn1cc(-c2ccc(-c3cc4nnn(C5CC(C)(C)NC(C)(C)C5)c4nn3)c(O)c2)c(C#N)n1` [Cpd 132, 4-{3-hydroxy-4-[3-(2,2,6,6-tetramethylpiperidin-4-yl)-3H-[1,2,3]triazolo[4,5-c]pyridazin-6-yl]phenyl}-1-methyl-1H-pyrazole-3-carbonitrile], 0.5 to 1 µM; that for `CC1(C)CC(n2nnc3cc(-c4ccc(-c5ccc(O)cc5)cc4O)nnc32)CC(C)(C)N1` [Cpd 38, 4-[3-(2,2,6,6-tetramethylpiperidin-4-yl)-3H-[1,2,3]triazolo[4,5-c]pyridazin-6-yl]biphenyl-3,4′-diol], not above 0.1 µM.
The compound `CC1(C)CC(n2cnc3nc(-c4ccc(-c5cn[nH]c5)cc4O)cnc32)CC(C)(C)N1` [Cpd 1, 5-(1H-pyrazol-4-yl)-2-[1-(2,2,6,6-tetramethylpiperidin-4-yl)-1H-imidazo[4,5-b]pyrazin-5-yl]phenol] gave a concentration for half-maximal inhibition (IC50) of 0.1 to 0.5 µM.
The result for `CC1(C)CC(n2nnc3cc(-c4ccc(-c5ncc(O)cn5)cc4O)nnc32)CC(C)(C)N1` [Cpd 68, 2-{3-hydroxy-4-[3-(2,2,6,6-tetramethylpiperidin-4-yl)-3H-[1,2,3]triazolo[4,5-c]pyridazin-6-yl]phenyl}pyrimidin-5-ol] reads not above 0.1 µM; that for `CC1(C)CC(n2nnc3cc(-c4cc(F)c(-c5ccc(O)cc5)cc4O)nnc32)CC(C)(C)N1` [Cpd 53, 6-fluoro-4-[3-(2,2,6,6-tetramethylpiperidin-4-yl)-3H-[1,2,3]triazolo[4,5-c]pyridazin-6-yl][1,1′-biphenyl]-3,4′-diol], not above 0.1 µM.
As to `CC1(C)CC(n2nnc3cc(-c4cc(F)c(-c5ccncc5)cc4O)nnc32)CC(C)(C)N1` [Cpd 87, 4-fluoro-5-(pyridin-4-yl)-2-[3-(2,2,6,6-tetramethylpiperidin-4-yl)-3H-[1,2,3]triazolo[4,5-c]pyridazin-6-yl]phenol], the IC50 was in the range of 0.1 to 0.5 µM.
The result for `Cn1cc(-c2cc(O)c(-c3cc4nnn(C5CC(C)(C)NC(C)(C)C5)c4nn3)cc2F)cn1` [Cpd 62, 4-fluoro-5-(1-methyl-1H-pyrazol-4-yl)-2-[3-(2,2,6,6-tetramethylpiperidin-4-yl)-3H-[1,2,3]triazolo[4,5-c]pyridazin-6-yl]phenol] reads not above 0.1 µM; that for `CC1(C)CC(n2nnc3cc(-c4ccc(-c5ccnnc5)cc4O)nnc32)CC(C)(C)N1` [Cpd 76, 5-(pyridazin-4-yl)-2-[3-(2,2,6,6-tetramethylpiperidin-4-yl)-3H-[1,2,3]triazolo[4,5-c]pyridazin-6-yl]phenol], 0.1 to 0.5 µM.
Next, `CC1(C)CC(n2ccc3nc(-c4ccc(-c5cn[nH]c5)cc4O)cnc32)CC(C)(C)N1` [Cpd 10, 5-(1H-pyrazol-4-yl)-2-[5-(2,2,6,6-tetramethylpiperidin-4-yl)-5H-pyrrolo[2,3-b]pyrazin-2-yl]phenol]: not above 0.1 µM.
Next, `Oc1cc(-c2cn[nH]c2)ccc1-c1cc2scc(C3=CCNCC3)c2nn1` [Cpd 15, 5-(1H-pyrazol-4-yl)-2-[7-(1,2,3,6-tetrahydropyridin-4-yl)thieno[3,2-c]pyridazin-3-yl]phenol]: 1 to 3 µM; `CC1(C)CC(n2nnc3cc(-c4cc(O)c(-c5cn[nH]c5)cc4O)nnc32)CC(C)(C)N1` [Cpd 58, 2-(1H-pyrazol-4-yl)-5-[3-(2,2,6,6-tetramethylpiperidin-4-yl)-3H-[1,2,3]triazolo[4,5-c]pyridazin-6-yl]benzene-1,4-diol]: 0.1 to 0.5 µM; `CC1(C)CC(n2nnc3cc(-c4ccc(-c5ccc(O)cn5)cc4O)nnc32)CC(C)(C)N1` [Cpd 67, 6-{3-hydroxy-4-[3-(2,2,6,6-tetramethylpiperidin-4-yl)-3H-[1,2,3]triazolo[4,5-c]pyridazin-6-yl]phenyl}pyridin-3-ol]: not above 0.1 µM.
Compound `COc1cc(-c2ccc(-c3cc4nnn(C5CC(C)(C)NC(C)(C)C5)c4nn3)c(O)c2)ncn1` [Cpd 113, 5-(6-methoxypyrimidin-4-yl)-2-[3-(2,2,6,6-tetramethylpiperidin-4-yl)-3H-[1,2,3]triazolo[4,5-c]pyridazin-6-yl]phenol] had an IC50 not above 0.1 µM.
Regarding `CC1(C)CC(n2nnc3cc(-c4cc5cn[nH]c5cc4O)nnc32)CC(C)(C)N1` [Cpd 94, 5-[3-(2,2,6,6-tetramethylpiperidin-4-yl)-3H-[1,2,3]triazolo[4,5-c]pyridazin-6-yl]-1H-indazol-6-ol], the IC50 was 0.5 to 1 µM.
The result for `Cc1ncc(-c2ccc(-c3cc4nnn(C5CC(C)(C)NC(C)(C)C5)c4nn3)c(O)c2)o1` [Cpd 158, 5-(2-methyl-1,3-oxazol-5-yl)-2-[3-(2,2,6,6-tetramethylpiperidin-4-yl)-3H-[1,2,3]triazolo[4,5-c]pyridazin-6-yl]phenol] reads not above 0.1 µM; that for `CC1(C)CC(n2nnc3cc(-c4ccc(-c5cc[nH]n5)cc4O)nnc32)CC(C)(C)N1` [Cpd 48, 5-(1H-pyrazol-3-yl)-2-[3-(2,2,6,6-tetramethylpiperidin-4-yl)-3H-[1,2,3]triazolo[4,5-c]pyridazin-6-yl]phenol], 0.1 to 0.5 µM.
The result for `CCOc1cc(-c2ccc(-c3cc4nnn(C5CC(C)(C)NC(C)(C)C5)c4nn3)c(O)c2)ncn1` [Cpd 124, 5-(6-ethoxypyrimidin-4-yl)-2-[3-(2,2,6,6-tetramethylpiperidin-4-yl)-3H-[1,2,3]triazolo[4,5-c]pyridazin-6-yl]phenol] reads not above 0.1 µM; that for `CC1(C)CC(n2nnc3cc(-c4ccc(-c5cn[nH]c5)c5nn[nH]c45)nnc32)CC(C)(C)N1` [Cpd 117, 6-[4-(1H-pyrazol-4-yl)-1H-benzotriazol-7-yl]-3-(2,2,6,6-tetramethylpiperidin-4-yl)-3H-[1,2,3]triazolo[4,5-c]pyridazine], 3 to 9 µM; that for `CC1(C)CC(n2nnc3cc(-c4ccc(-c5cnc6cnccn56)cc4O)nnc32)CC(C)(C)N1` [Cpd 85, 5-(imidazo[1,2-a]pyrazin-3-yl)-2-[3-(2,2,6,6-tetramethylpiperidin-4-yl)-3H-[1,2,3]triazolo[4,5-c]pyridazin-6-yl]phenol], 1 to 3 µM.
Next, `Cn1nccc1-c1ccc(-c2cc3nnn(C4CC(C)(C)NC(C)(C)C4)c3nn2)c(O)c1` [Cpd 50, 5-(1-methyl-1H-pyrazol-5-yl)-2-[3-(2,2,6,6-tetramethylpiperidin-4-yl)-3H-[1,2,3]triazolo[4,5-c]pyridazin-6-yl]phenol]: 0.1 to 0.5 µM; `Cn1cc(-c2ccc(-c3cc4nnn(C5CC(C)(C)NC(C)(C)C5)c4nn3)c(O)c2)nn1` [Cpd 138, 5-(1-methyl-1H-1,2,3-triazol-4-yl)-2-[3-(2,2,6,6-tetramethylpiperidin-4-yl)-3H-[1,2,3]triazolo[4,5-c]pyridazin-6-yl]phenol]: 0.1 to 0.5 µM.

By IC50 is commonly meant the concentration that gives 50% inhibition. Read a low IC50 as inhibition by little substance.

The values are drawn from patent US11858941B2, “Heterocyclic and heteroaryl compounds for treating Huntington's disease” (PTC THERAPEUTICS, INC., priority 2018, dated 2024).
